Experimental data reported in patent publication US8436039B2, “Inhibitors of the ATB(0,+) transporter and uses thereof” (Georgia Health Sciences University Research Institute, Inc., priority 2008, dated 2013).

Legend:
[1] = target: T1, human ATB^0,+ (Homo sapiens, UniProt Q9UN76); assay: L-tryptophan-induced inward currents in X. laevis oocytes expressing human ATB^0,+; assay type: cell-based; details: 1 mM added simultaneously with 20 μM L-tryptophan
T1 construct: The human ATB^0,+ cDNA was cloned from an MCF7 cell (a human mammary epithelial cancer cell line) cDNA library; expressed in transfected cells; host or cells: Xenopus laevis oocytes injected with 50 ng capped cRNA
T1 sequence (Q9UN76 1-642): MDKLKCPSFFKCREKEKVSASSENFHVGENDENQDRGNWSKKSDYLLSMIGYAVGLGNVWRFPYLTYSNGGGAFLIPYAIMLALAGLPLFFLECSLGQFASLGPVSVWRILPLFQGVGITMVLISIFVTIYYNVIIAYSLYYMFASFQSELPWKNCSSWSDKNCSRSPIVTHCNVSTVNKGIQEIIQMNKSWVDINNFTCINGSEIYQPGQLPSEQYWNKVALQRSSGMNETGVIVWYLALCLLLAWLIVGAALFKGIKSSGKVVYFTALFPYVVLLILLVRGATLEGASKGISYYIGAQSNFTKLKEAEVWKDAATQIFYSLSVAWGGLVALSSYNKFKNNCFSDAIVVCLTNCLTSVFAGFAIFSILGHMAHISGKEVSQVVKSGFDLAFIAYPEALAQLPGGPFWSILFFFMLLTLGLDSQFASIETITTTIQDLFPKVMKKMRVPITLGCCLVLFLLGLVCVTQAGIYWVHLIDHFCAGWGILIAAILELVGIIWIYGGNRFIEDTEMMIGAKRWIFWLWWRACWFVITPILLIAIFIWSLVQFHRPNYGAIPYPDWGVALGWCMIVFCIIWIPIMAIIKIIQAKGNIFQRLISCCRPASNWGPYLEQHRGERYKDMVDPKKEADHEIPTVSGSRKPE
Experimental: Capped cRNA from the cloned mouse or human ATB^0,+ cDNA was synthesized using the mMESSAGE mMACHTNE kit (Ambion, Austin, Tex., U.S.A.). Mature oocytes (stage IV or V) from X. laevis were injected with 50 ng of cRNA. Uninjected oocytes served as controls. The oocytes were used for electrophysiological studies 3-6 days after cRNA injection. Electrophysiological studies were performed by the two-microelectrode voltage-clamp method (Nakanishi et al., 2001, J. Physiol. 532, 297-304). Oocytes were superfused with an NaCl-containing buffer (100 mM NaCl, 2 mM KCl, 1 mM MgCl2, 1 mM CaCl2, 3 mM Hepes, 3 mM Mes and 3 mM Tris, pH 7.5), followed by the same buffer containing tryptophan derivatives. The membrane potential was clamped at −50 mV. The differences between the steady-state currents measured in the presence and absence of substrates were considered as the substrate-induced currents. In the analysis of the saturation kinetics of substrate-induced currents, the kinetic parameter K0.5 (i.e. substrate concentration necessary for induction of half-maximal current) was calculated by fitting the values of the substrate-induced currents to the Michaelis-Menten equation. The Na^+ and Cl^− activation kinetics of substrate-induced currents were analysed by measuring the substrate-specific currents in the presence of increasing concentrations of Na^+ (concentration of Cl^− kept constant at 100 mM) or in the presence of increasing concentrations of Cl^− (concentration of Na^+ kept constant at 100 mM). In these experiments, the composition of the superfusion buffer was modified to contain 2 mM potassium gluconate, 1 mM MgSO4 and 1 mM calcium gluconate in place of KCl, MgCl2 and CaCl2 respectively. The data from these experiments were analysed by the Hill equation to determine the Hill coefficient (h; number of Na^+ and Cl^− ions involved in the activation process). The kinetic parameters were determined by using the commercially available computer program Sigma Plot, version 6.0 (SPSS, Chicago, Ill., U.S.A.). […]

[2] = tested on: HMEC, HBL100 and MCF10A cells; assay: Colony formation assay, non-malignant ATB^0,+-negative mammary epithelial cell lines; assay type: cell-based, human; details: 2.5 mM, 12 days
Experimental: The colony formation assay was performed as described previously (Thangaraju et al., 2006, Cancer Res. 66, 11560-11564). Mammary epithelial cells were seeded on to 6-well plates (10000 cells per well) in DMEM. After 24 hours, cells were exposed to varying concentrations of α-methyl-DL-tryptophan or 1-methyl-DL-tryptophan for 2 weeks, changing medium every 2 days. Cells were washed with PBS and fixed in 100% (v/v) methanol for 30 min followed by staining with KaryoMAX Giemsa stain for one hour. The wells were washed with water and dried overnight at room temperature. Finally, the dye in the wells was dissolved with 1% SDS in 0.2 M NaOH for one hour, and the attenuance of the released dye was measured at 630 nm.
The present studies have identified α-methyl-DL-tryptophan as a blocker of ATB^0,+ and also have shown that the compound is able to block the transport of amino acids via ATB^0,+ under conditions that stimulate those in vivo in terms of amino acid concentrations. […] For this, we treated the human mammary epithelial cell lines with 2.5 mM α-methyl-DL-tryptophan in the presence of regular culture medium for 12 days in clonogenic assay and quantified the colony formation for each cell line in the presence and absence of α-methyl-DL-tryptophan (FIG. 8). […]

Compound	effect on inward currents induced by 20 μM L-tryptophan [1]	effect on ability to form colonies [2]
Cn1cc(CC(N)C(=O)O)c2ccccc21 (racemic) [1-methyl-DL-tryptophan]	greater than that with 20 μM L-tryptophan alone	
CC(N)(Cc1c[nH]c2ccccc12)C(=O)O (racemic) [α-methyl-DL-tryptophan]	blocked completely	no effect
